According to patent publication EP4414363A1, “INDOLYLACETIC DERIVATIVES FOR USE IN THE TREATMENT OF NEURODEGENERATIVE DISEASES” (Miuli Pharma S.r.l., priority 2023, dated 2024):

Columns and labels:
[1] = tested on: SOD1^G93A mice; test: Survival of ALS mice under prolonged treatment; format: in vivo; settings: daily i.p. from 2 months of age, dose group not stated, vehicle 127.9 ± 1.65 days
Source text: (§1) B6SJL-TgN SOD1/G93A(+)1Gur mice expressing high copy number of mutant human SOD1 with a Gly93Ala substitution [SOD1^G93A] and B6SJL-TgN (SOD1)2Gur mice expressing wild-type human SOD1 (WT) were obtained from Jackson Laboratories (Bar Harbor, ME, USA). Transgenic animals have been crossed with background-matched B6SJL wild-type female and selective breeding maintained each transgene in the […] state. All transgenic mice were identified analyzing extracts from tail tips by staining for SOD1 as previously described.
(§2) Overall, 24 male and female mice housed under diurnal lighting conditions (12 h darkness/light) were used. The number of female and male mice was balanced among all the experimental groups.
(§3) The newly synthesized compound III, dissolved in distilled water, was intraperitoneally administered daily at a dose of […], beginning at 2 months of age until 4,5 months of age.
Disease end stage was defined by the inability of mice to right themselves within 20 s when placed on their sides.
Data were evaluated as means ± SEM. Statistically significant differences among means were determined by one-way ANOVA followed by Student-Newman-Keuls/Bonferroni post-hoc test for western blotting, and Behavioral test. The Kaplan-Meier plot was used to evaluate survival, grip, rotarod and paralysis onset. Student's t-test was used for two groups comparison. […]

[2] = tested on: SOD1^G93A mice; test: Paralysis onset in ALS mice; format: in vivo; settings: daily i.p., dose group not stated, vehicle 33.69 ± 1.31 days
Source text: as §1, §2, §3
(§4) Motor coordination and balance was assessed using a five-station mouse rotarod apparatus (Ugo Basile; Milan, Italy) as previously described. In each station, the rod was 6 cm in length and 3 cm in diameter. […] Mice had three trials on the rod, and the latencies to fall were measured once a week and then averaged. […] Body weight was measured immediately before each session of behavioral tests. […]

[3] = tested on: SOD1^G93A mice; test: Rotarod test (motor coordination and balance); format: in vivo
Source text: as §1, §2, §3
Motor coordination and balance was assessed using a five-station mouse rotarod apparatus (Ugo Basile; Milan, Italy) as previously described. In each station, the rod was 6 cm in length and 3 cm in diameter. Mice were trained to maintain balance at increasing speed up to a constant speed of 14 rpm for three consecutive trials. The test sessions were conducted by one rotarod trial administered once a week. In this session, the speed of rotation was increased from 4 to 14 rpm over 60 s. Mice had three trials on the rod, and the latencies to fall were measured once a week and then averaged. […] Weekly evaluation of hind limb paralysis was performed. […] Body weight was measured immediately before each session of behavioral tests.
To investigate whether the reduced neuroinflammatory response observed in vitro through the effect on TNF-α expression was accompanied by an amelioration of the motor performance of these mice, behavioral tests were weekly performed on WT and SOD1^G93A mice, starting from the second month after birth (P60), when i.p. administration of compound III started and when the mice were asymptomatic. […]

[4] = from reference [15]; cited from earlier work
[5] = tested on: SOD1^G93A mice; test: Hind limb grip test; format: in vivo
Source text: as §1, §2, §3
Hind limb grip test was carried out by placing the mouse on a grid (45 cm long × 28 cm large) upside-down (30 cm above a foam pad). The test was performed once a week and the latency to fall off the grid was also measured up to a maximum of 60 s.
To investigate whether the reduced neuroinflammatory response observed in vitro through the effect on TNF-α expression was accompanied by an amelioration of the motor performance of these mice, behavioral tests were weekly performed on WT and SOD1^G93A mice, starting from the second month after birth (P60), when i.p. administration of compound III started and when the mice were asymptomatic. All animals were assigned to three experimental groups: SOD1^G93A+vehicle, SOD1 ^G93A +compound III at 1 mg/kg, and SOD1 ^G93A +compound III at 10 mg/kg, and then weighed, subjected to rotarod test, grip test and observed to detect the disease onset.

[6] = tested on: TNF-α; test: Western blot of LPS-induced TNF-α expression in microglia cells; format: cell-based, murine; settings: BV2 microglial cells, LPS 100 ng/mL, compound 100nM, 24h
Method: (§5) Human neuroblastoma SH-SY5Y cells (Cell bank Line Collection ICLC) and immortalized murine microglial BV-2 cell line were grown as monolayers in polystyrene dishes (12 or 6 wells plate) in Dulbecco's modified Eagle's medium (DMEM) with 10% (v/v) fetal bovine serum (FBS), L glutamine (2 mM), 1% penicillin (50 IU/ml) and streptomycin (50 µg/ml). Cells were grown in a humidified atmosphere containing 95% air and 5% CO2, and the medium was changed every two days. All experiments were conducted in cultures containing cells between the 4th and 8th passages.
(§6) SH-SY5Y and BV-2 cells were plated with a confluence of 65.000 cell/mL. After 24 hours of cell seeding, medium was changed for 6h starvation in a medium containing 0% FBS. […]
(§7) Cells were exposed to compounds or vehicle and, after 24 hours, have been analyzed for Western Blotting experiments or MTT assay.
(§8) Western blot analysis was performed as previously described. Protein samples (50 µg) were analyzed on 8% subjected to SDS-polyacrylamide gel electrophoresis (SDS-PAGE) and electrotransferred onto Hybond ECL nitrocellulose paper (Amersham, Milan, Italy). […]
(§9) Immunoreactive bands were detected using ECL (Amersham). The optical density of the bands (normalized for β-actin) was determined by Chemi-Doc Imaging System (Bio-Rad, Segrate, Italy).

[7] = Body weight during prolonged treatment; format: in vivo, mice
Source text: as §1, §2, §3, §4

[8] = tested on: COX2; test: Western blot of COX2 expression in LPS-exposed microglia cells; format: cell-based, murine; settings: BV2 microglial cells, LPS 100 ng/mL, compound 100nM, 24h
Method: as §5, §6, §7, §8, §9

[9] = tested on: iNOS; test: Western blot of LPS-induced iNOS expression in microglia cells; format: cell-based, murine; settings: BV2 microglial cells, LPS 100 ng/mL, compound 100nM, 24h
Method: as §5, §6, §7, §8, §9

| SMILES | average lifespan [1] | paralysis onset [2] | rotarod: time able to balance on the rotarod ([3]; SOD1^G93A mice, at 8 weeks of treatment, vehicle 3.7±1 sec, maximum 60 s) | rotarod onset (50% of the animals started to fall off the rotarod) ([3]; SOD1^G93A mice, day of treatment, vehicle around the 30th day) | rotarod performance ([3]; wild type mice) | gastric damage evaluated as the lengths of the lesions [4] | onset of grip performance loss (50% of the animals started to lose their grip) ([5]; G93A mice, day after treatment, vehicle around the 35th day) | grip performance (latency to fall off the grid) ([5]; SOD1^G93A mice, at 6 weeks of treatment, vehicle 28.8 ± 4 sec, maximum 60 s) | grip performance (time remained on the grid) ([5]; SOD1^G93A mice, at 8 weeks of treatment) | overexpression of TNF-α induced by LPS exposure [6] | body weight ([7]; SOD1^G93A mice treated for 8 weeks, vehicle group 10% reduction at 7 weeks) | body weight ([7]; WT mice, compound versus vehicle) | COX2 expression [8] | iNOS induction elicited by LPS [9] |
| --- | --- | --- | --- | --- | --- | --- | --- | --- | --- | --- | --- | --- | --- | --- |
| CCOC(=O)Cc1c(C)n(C2CCN(C)CC2)c2ccc(OC)cc12 [Compound III, Ethyl 2-(5-methoxy-2-methyl-1-(1-methylpiperidin-4-yl)-1H-indol-3-yl)acetate] | 146.2 ± 3 days | 42.47 ± 1.59 days | 21.4 ± 5 s | ~45 days | did not disrupt this performance | 3 ± 0.6 mm | ~45 days | 43.8 ± 4 s | 20 s | prevent the overexpression of TNF-α | remained stable over time | No differences were observed | not COX2 |  |
| COc1ccc2c(c1)c(CC(=O)O)c(C)n2C1CCN(C)CC1 [Compound II, 2-(5-methoxy-2-methyl-1-(1-methylpiperidin-4-yl)-1H-indol-3-yl)acetic acid] |  |  |  |  |  | 0 mm |  |  |  |  |  |  |  | prevent iNOS induction |
| COc1ccc2c(c1)c(CC(=O)O)c(C)n2C(=O)c1ccc(Cl)cc1 [indomethacin, reference compound] |  |  |  |  |  | 50 ± 8 mm |  |  |  |  |  |  |  |  |
